Results published in US7709463B2, “Idraparinux (SanOrg34006) for treatment of venous events in patients with deep venous thrombosis” (Sanofi-Aventis, priority 2002, dated 2010).

Key:
Type in all cases: in vivo, human
[1] = test system: patients with confirmed symptomatic proximal DVT; assay: Change in thrombotic burden assessed by central adjudication committee (CUS and PLS vs baseline), phase II study
Excerpt: (§1) The study design is illustrated in FIG. 1.
(§2) Each treatment group was to consist of 130 patients, of which at least 100 patients eligible for inclusion in the Intent-To-Treat (ITT) group. Subjects in the SanOrg34006 treatment groups were to be followed-up during a four-week period after the final assessments.
Primary efficacy parameter: change in thrombotic burden as assessed by the central adjudication committee using a 3-point ordinal outcome scale for the comparison of CUS and PLS (Perfusion Lung Scan) after 12 weeks of randomized treatment with baseline measurements (i.e. deterioration, normalization, or no relevant change) including a supplementary analysis on substantial improvement.
(§3) Secondary efficacy parameters: change in thrombotic burden using a binary scale (i.e. deterioration versus no deterioration); change of CUS on a 3-point ordinal scale; change of PLS on a 3-point ordinal scale; the composite clinical outcome (non-fatal symptomatic PE and/or recurrent DVT, death due to PE and/or DVT or unexplained, and any important change in therapeutic management of thrombotic events); coagulation markers: plasma D-dimer (fibrin fragment, released in process of thrombolysis; measure for ongoing thrombosis) and TAT (Thrombin-Antithrombin Complex) concentrations during the study treatment. • Safety

[2] = Plasma concentrations / population pharmacokinetics of SanOrg34006, phase II study
Method: The secondary objective was to assess population pharmacokinetics of SanOrg34006.
Plasma concentrations of SanOrg34006 were assessed within 48 h prior to the administration of SanOrg34006 in Weeks 2, 4 and 7. In addition during Week 7 within the time frames 0.5-2 h, 2-6 h, 6-48 h and 120-168 h post dose. In a subset of patients a more extensive sampling scheme was applied with pre-dose samples before each administration and the serial scheme for Week 7 also applied to Week 1 and 12.

[3] = test system: patients with confirmed symptomatic proximal DVT; assay: Composite clinical outcome assessed by CAC (recurrent DVT, symptomatic PE or unexplained death), phase II study
Excerpt: as §1, §2, §3

[4] = test system: patients with confirmed symptomatic proximal DVT; assay: Tolerability: adverse events, laboratory parameters, vital signs, phase II study
Excerpt: as §1, §2
Secondary efficacy parameters: (serious) adverse events, laboratory parameters (hematology, biochemistry, coagulation status, platelet counts), and vital signs (blood pressure, heart rate, body weight).

[5] = test system: patients with confirmed symptomatic proximal DVT; assay: Bleeding events during randomized treatment, phase II study
Excerpt: as §1, §2
Primary safety parameters: incidence of major bleeding and decreased platelet count.

[6] = SanOrg34006 2.5 mg SC once weekly, 12 weeks, ITT (N = 125)
[7] = SanOrg34006 5 mg SC once weekly, 12 weeks, ITT (N = 128)
[8] = SanOrg34006 7.5 mg SC once weekly, 12 weeks, ITT (N = 118)
[9] = SanOrg34006 10 mg SC once weekly, 12 weeks, ITT (N = 119)
[10] = Week 12 vs first administration
[11] = oral warfarin, 12-week course, ITT (N = 124)
[12] = oral warfarin, all patients with randomized treatment (N = 132)

Q: With `CO[C@H]1O[C@H](COS(=O)(=O)O)[C@@H](O[C@@H]2O[C@@H](C(=O)O)[C@@H](O[C@H]3O[C@H](COS(=O)(=O)O)[C@@H](O[C@@H]4O[C@H](C(=O)O)[C@@H](O[C@H]5O[C@H](COS(=O)(=O)O)[C@@H](OC)[C@H](OC)[C@H]5OC)[C@H](OC)[C@H]4OC)[C@H](OS(=O)(=O)O)[C@H]3OS(=O)(=O)O)[C@H](OC)[C@H]2OC)[C@H](OS(=O)(=O)O)[C@H]1OS(=O)(=O)O` [SanOrg34006, methyl O-(2,3,4-tri-O-methyl-6-O-sulfo-α-D-glucopyranosyl)-(1→4)-O-(2,3-di-O-methyl-β-D-glucopyranosyluronic acid)-(1→4)-O-(2,3,6-tri-O-sulfo-α-D-glucopyranosyl)-(1→4)-O-(2,3-di-O-methyl-α-L-idopyranosyluronic acid)-(1→4)-2,3,6-tri-O-sulfo-α-D-glucopyranoside] as the compound, how does the “Deterioration, overall change in thrombotic burden (2-point scale)” value [1, 6] read?
A: 6 (4.8) n (%)

Q: What about the “Deterioration, overall change in thrombotic burden (3-point scale)” value [1, 6] of the same compound?
A: 6 (4.8) n (%)

Q: What about the “No Deterioration, overall change in thrombotic burden (2-point scale)” value (“No Deterioration, overall change” for short) [1, 6] of the same compound?
A: 119 (95.2) n (%)

Q: What about the “No Relevant Change, overall change in thrombotic burden (3-point scale)” value (shortened to “No Relevant Change, overall change”) [1, 6] of the same compound?
A: 87 (69.6) n (%)

Q: And the “Normalization, overall change in thrombotic burden (3-point scale)” value (from here on “Normalization, overall change”) [1, 6]?
A: 32 (25.6) n (%)

Q: What about the “Deterioration, overall change in thrombotic burden (2-point scale)” value [1, 7] of the same compound?
A: 8 (6.3) n (%)

Q: What about the “Deterioration, overall change in thrombotic burden (3-point scale)” value [1, 7] of the same compound?
A: 8 (6.3) n (%)

Q: What about the “No Deterioration, overall change” value [1, 7] of the same compound?
A: 120 (93.8) n (%)

Q: And the “No Relevant Change, overall change” value [1, 7]?
A: 89 (69.5) n (%)

Q: And the “Normalization, overall change” value [1, 7]?
A: 31 (24.2) n (%)

Q: What about the “Deterioration, overall change in thrombotic burden (2-point scale)” value [1, 8] of the same compound?
A: 8 (6.8) n (%)

Q: And the “Deterioration, overall change in thrombotic burden (3-point scale)” value [1, 8]?
A: 8 (6.8) n (%)

Q: And the “No Deterioration, overall change” value [1, 8]?
A: 110 (93.2) n (%)

Q: And the “No Relevant Change, overall change” value [1, 8]?
A: 81 (68.6) n (%)

Q: And the “Normalization, overall change” value [1, 8]?
A: 29 (24.6) n (%)

Q: And the “Deterioration, overall change in thrombotic burden (2-point scale)” value [1, 9]?
A: 15 (12.6) n (%)

Q: What about the “Deterioration, overall change in thrombotic burden (3-point scale)” value [1, 9] of the same compound?
A: 15 (12.6) n (%)

Q: What about the “No Deterioration, overall change” value [1, 9] of the same compound?
A: 104 (87.4) n (%)

Q: What about the “No Relevant Change, overall change” value [1, 9] of the same compound?
A: 74 (62.2) n (%)

Q: What about the “Normalization, overall change” value [1, 9] of the same compound?
A: 30 (25.2) n (%)

Q: What about the “efficacy compared with warfarin” value ([1]; SanOrg34006 doses tested) of the same compound?
A: No differences in efficacy

Q: What about the “dose-response relationship for primary and secondary efficacy endpoints” value ([1]; tested doses 2.5-10 mg) of the same compound?
A: No statistically significant dose-response relationship

Q: And the “plasma concentrations relative to levels associated with an increased bleeding risk” value ([2]; 2.5 mg SanOrg34006)?
A: remained below the levels associated with an increased bleeding risk

Q: What about the “share of patient population with plasma levels 'too low' in terms of the ACCP guidelines” value ([2]; 2.5 mg dose group) of the same compound?
A: 75%

Q: What about the “dose proportionality of pharmacokinetics” value ([2]; 2.5-10 mg once weekly) of the same compound?
A: Dose-proportional

Q: And the “AUC values at steady state relative to first administration” value [2, 10]?
A: twice as high

Q: What about the “trough concentrations at steady state relative to first administration” value [2, 10] of the same compound?
A: three times as high

Q: What about the “anti-Xa activity corresponding with plasma trough levels” value ([2]; dose of 2.5 mg, once a week) of the same compound?
A: 0.09-0.26 anti-Xa U/mL

Q: What about the “plasma trough levels (Cmin)” value ([2]; dose of 2.5 mg, once a week) of the same compound?
A: 126 ± 63 ng/mL

Q: What about the “time at which steady state had been reached” value ([2]; once-weekly administration) of the same compound?
A: Week 12

Q: What about the “No fatal or non-fatal recurrent DVT, symptomatic PE or unexplained death (composite clinical outcome)” value (“No fatal or non-fatal recurrent DVT” below) [3, 6] of the same compound?
A: 125 (100.0) n (%)

Q: And the “Yes: fatal or non-fatal recurrent DVT, symptomatic PE or unexplained death (composite clinical outcome)” value (“Yes: fatal or non-fatal recurrent DVT” below) [3, 6]?
A: 0 (0.0) n (%)

Q: And the “No fatal or non-fatal recurrent DVT” value [3, 7]?
A: 126 (98.4) n (%)

Q: And the “Yes: fatal or non-fatal recurrent DVT” value [3, 7]?
A: 2 (1.6) n (%)

Q: And the “No fatal or non-fatal recurrent DVT” value [3, 8]?
A: 118 (100.0) n (%)

Q: And the “Yes: fatal or non-fatal recurrent DVT” value [3, 8]?
A: 0 (0.0) n (%)

Q: And the “No fatal or non-fatal recurrent DVT” value [3, 9]?
A: 116 (97.5) n (%)

Q: And the “Yes: fatal or non-fatal recurrent DVT” value [3, 9]?
A: 3 (2.5) n (%)

Q: What about the “tolerability in terms of adverse events (other than bleeding events), laboratory parameters, and vital signs” value ([4]; in vivo) of the same compound?
A: generally well tolerated

Q: What about the “dose group outcome under stopping rule for major bleedings” value ([5]; in vivo) of the same compound?
A: prematurely discontinued

Q: Which “Deterioration, overall change in thrombotic burden (2-point scale)” value [1, 11] does the source give for `CC(=O)CC(c1ccccc1)c1c(O)c2ccccc2oc1=O` (centres unmarked) [Warfarin, warfarin, reference compound] here?
A: 9 (7.3) n (%)

Q: What about the “Deterioration, overall change in thrombotic burden (3-point scale)” value [1, 11] of the same compound?
A: 9 (7.3) n (%)

Q: And the “No Deterioration, overall change” value [1, 11]?
A: 115 (92.7) n (%)

Q: And the “No Relevant Change, overall change” value [1, 11]?
A: 84 (67.7) n (%)

Q: What about the “Normalization, overall change” value [1, 11] of the same compound?
A: 31 (25.0) n (%)

Q: And the “Yes: fatal or non-fatal recurrent DVT” value [3, 11]?
A: 2 (1.6) n (%)

Q: And the “tolerability in terms of adverse events (other than bleeding events), laboratory parameters, and vital signs” value ([4]; all SanOrg34006 doses, warfarin)?
A: generally well tolerated

Q: And the “Any Bleeding during randomized treatment” value [5, 12]?
A: 11 (8.3) n (%)

Q: What about the “Major Bleeding during randomized treatment” value [5, 12] of the same compound?
A: 1 (0.8) n (%)

Q: What about the “No Major Bleeding during randomized treatment” value [5, 12] of the same compound?
A: 131 (99.2) n (%)
